The target of one experiment is urokinase (Homo sapiens, UniProt P00749). The conditions noted are these: in vitro; cited from earlier work.
The subject of the next experiment is p16. The experiment is described as follows: p16 methylation status in Caco-2 cells. The conditions noted are these: EGCG 20 μM, 7-days treatment.
The target in the next experiment is T1, chicken liver DHFR (Gallus gallus, UniProt P00378).
T1 construct: from tissue; host or cells: chicken liver
Kind of experiment: Kinetic analysis of inhibition of chicken liver DHFR. It is filed as biochemical. The method, then:
The activity of DHFR was determined at 25° C. by following the decrease of NADPH and DHF by absorbance measurements at 340 nm (ε=11,800 M^−1 cm^−1) by using a Perkin-Elmer Lambda-2 spectrophotometer with cuvettes of 1.0 cm light-path.
Experiments were performed at pH 7.58 and 25° C. in a buffer containing 2-(N-morpholino)ethanesulfonic acid (MES, 25 mM), sodium acetate (25 mM), tris(hydroxymethyl)aminomethane (Tris 50 mM), and NaCl (100 mM). To prevent the oxidation of catechins, the reaction mixture contained 1 mM ascorbic acid. The pH of the reaction was measured before and after of the experiment. The assays were started by the addition of enzyme. In the absence of the enzyme, the rate of change of absorbance was negligible.
Lineweaver-Burk plots were made of the reaction of chicken liver DHFR (3.3 nM) with DHF and NADPH. For initial velocity inhibition experiments one substrate (NADPH) was held constant at saturating concentration (100 μM) while the concentration of the other substrate (DHF) and the inhibitor (EGCG) were varied (FIG. 3). […] This initial concentration of saturating NADPH was considered as constant after the consumption of 10 μM DHF by the addition of enzyme. Data were fitted by nonlinear regression to the integrated form (31) of the Michaelis equation. The fitting was performed by using Marquart's algorithm (32) implemented in the Sigma Plot 2.01 for Windows (33). […]

A further experiment deals with S. maltophilia DHFR (Stenotrophomonas maltophilia, UniProt B2FPG1). It is filed as biochemical. The conditions noted are these: S. maltophilia DHFR. Here is the method: For the DHFR extraction, S. maltophilia strain number 1, was inoculated onto fresh agar 24 h before using. Then, liquid medium was inoculated with the strain and these broth cultures were incubated at 37° C. and shaken at 100 cycles per min. Solid medium was MacConkey agar (Oxoid Ltd., Basingstoke, England). Liquid medium was Brilliant Green Bile 2% broth (Oxoid). Bacteria were grown to mid-log phase, harvested by centrifugation (1,600 rpm 30 min) and washed twice in 50 mM phosphate buffer (pH 7.0) followed each time by a new centrifugation (1,600 rpm 5 min). Cell lysis, centrifugation, and dialysis were carried out between 4 and 8° C. Fast protein liquid chromatography (FPLC) purification steps were performed at room temperature. […] After centrifugation at 36,000 rpm for 30 min to remove cell debris, the supernatant was filtered. This supernatant was brought to 40% saturation with solid ammonium sulfate under continuous stirring. After 1 h the solution was centrifuged at 35,000 rpm for 30 min and the pellet discarded. Additional ammonium sulfate was added to the clear supernatant to give 90% saturation and stirred for 1 h. After centrifugation, the precipitates were suspended in 2 ml of buffer B (10 mM potassium phosphate buffer, pH 7.4, 2 mM β-mercaptoethanol). Concentrated enzyme (2 ml samples) was loaded onto a […] gel-filtration column (Sephacryl S-75 16/60 Hi-Prep, Amersham Pharmacia Biotech Europe GmbH, Barcelona, Spain), equilibrated with buffer B and eluted at 0.5 ml/min. The active fractions were concentrated and stored at −80° C. until used.
Initial velocity inhibition experiments were carried out for the inhibition studies of S. maltophilia with TMP and EGCG. One substrate (NADPH) was held constant at saturating concentration while the other substrate (DHF) and the inhibitor (TMP or EGCG) were varied. To prevent the oxidation of EGCG the reaction mixture contained 1 mM N-acetylcysteine (Sigma). For MTX inhibition the slow development of […] inhibition was determined by continuously monitoring the disappearance of NADPH and DHF after initiation of the reaction by the addition of DHFR. Reaction mixtures contained buffer, NADPH (100 μM), DHF (20 μM), and various concentrations of MTX. The extent of recovery of enzymatic activity following inhibition induced by preincubation with DHFR inhibitors was determined as follows. DHFR was preincubated for 30 min at 25° C. in the buffer mixture containing MTX, TMP or EGCG. An aliquot of the incubation mixture was then diluted 500-fold into a reaction mixture containing buffer mixture, NADPH (100 μM), and DHF (20 μM). Recovery of enzyme activity was followed by continuous monitoring at 340 nm.
Provided that the concentration of free inhibitor is not substantially altered by the formation of an enzyme-NADPH-inhibitor complex, the progress curve for the inhibition in the presence of saturating NADPH can be described by Eqn. 1 (as above): P=vst+(v0−vs)(1−exp(−kobst))/kobs • where vs, v0 and kobs represent the steady-state velocity, initial velocity and apparent first-order rate constant, respectively. The apparent first-order rate constant is related to the inhibitor concentration by Eqn. 2, where Ki denotes the dissociation constants for the initial binding of MTX to the enzyme-NADPH complex. [formula]

The target of experiment [1] is T2, recombinant human DHFR (rHDHFR) (Homo sapiens, UniProt P00374).
T2 sequence (P00374 1-187): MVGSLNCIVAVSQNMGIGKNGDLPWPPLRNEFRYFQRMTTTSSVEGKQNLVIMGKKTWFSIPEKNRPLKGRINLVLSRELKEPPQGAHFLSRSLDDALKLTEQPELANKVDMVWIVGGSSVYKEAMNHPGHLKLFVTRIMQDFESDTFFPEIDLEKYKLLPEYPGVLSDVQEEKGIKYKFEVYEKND
Kind of experiment: Inhibition of human DHFR by tea catechins. It is filed as biochemical.

The subject of the next experiment is NF-κB. The experiment is described as follows: TNF-α-mediated activation of NF-κB (Western blot). Type of experiment: cell-based. The conditions noted are these: 24 hours, then TNF-α, IκBα, phospho-IκBα, Akt. The method, then:
To check if the antifolate activity of EGCG is related to the suppression of activation of NF-κB, cells were grown in the presence of EGCG or MTX. After 24 hours, the cells were induced with TNF-α and the content of proteins related to NF-κB activation (IκBα, phospho-IκBα, Akt and phosphor-Akt) was checked by Western blot (FIG. 16A).

Sequence of S. maltophilia DHFR (B2FPG1 entry or part of it): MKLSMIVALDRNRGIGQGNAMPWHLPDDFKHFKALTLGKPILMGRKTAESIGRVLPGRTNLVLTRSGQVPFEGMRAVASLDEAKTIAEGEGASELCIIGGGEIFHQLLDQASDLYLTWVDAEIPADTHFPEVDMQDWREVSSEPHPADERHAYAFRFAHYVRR
T1 sequence (P00378 whole entry): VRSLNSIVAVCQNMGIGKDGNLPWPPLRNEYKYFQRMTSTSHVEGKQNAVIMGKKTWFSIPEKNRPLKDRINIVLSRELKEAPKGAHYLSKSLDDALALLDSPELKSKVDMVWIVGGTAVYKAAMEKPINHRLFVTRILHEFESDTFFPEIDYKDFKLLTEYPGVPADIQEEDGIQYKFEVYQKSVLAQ

With (−)-epigallocatechin gallate [EGCG], on urokinase, the “concentration needed to inhibit urokinase activity” value was 2 to 10 mM. In addition, in the experiment on p16, the p16 methylation pattern result was “changed from methylated to unmethylated”. For the same substance, the Ki at chicken liver DHFR (chicken liver DHFR, from secondary plot, read-out: KI as a competitive inhibitor of DHF) is 10.3 µM; at S. maltophilia DHFR (competitive respect to DHF, read-out: inhibition constant (Ki)) it was 4.04 µM; in experiment [1] it was 2000 nM. The “inhibition after preincubation and 500-fold dilution” value against chicken liver DHFR (enzyme 1.65 μM preincubated with 20 to 50 μM inhibitor for 30 min, 500-fold dilution into DHF/NADPH assay) is given as “did not produce any measurable inhibition”. Moreover, at S. maltophilia DHFR, the “Type of inhibition observed” value is “competitive (reversible)”. The “effect of preincubation of the enzyme with inhibitor” value on S. maltophilia DHFR (preincubation 30 min, 500-fold dilution) is “did not showed any effect on enzymatic activity”. The “inhibition of rHDHFR activity” value in experiment [1] is recorded as “potent inhibitors”. Moreover, in the experiment with NF-κB, the “effects on proteins related to NF-κB activation, with folinic acid” value is given as “highly reversed by folinic acid”.

The values are drawn from patent US20070249545A1, “DIHYDROFOLATE REDUCTASE INHIBITION BY EPIGALLOCATECHIN GALLATE COMPOUNDS” (priority 2004, published 2007).
